Experiments:
Format in all cases: in vivo, human
[1] = tested on: patients with symptomatic pulmonary embolism with or without symptomatic deep venous thrombosis; assay: CASSIOPEA (EFC6034) phase III clinical trial: benefit-risk assessment (PE, DVT or major bleeding composite); settings: Randomized population
Text: Tables 13 and 14 show the incidence of pulmonary embolism, deep venous thrombosis or major bleedings (composite endpoint) in the randomized population in the treatment phase (3-month or 6-month treatment with idrabiotaparinux) and up to the end of the study (assessment at 12 months).

[2] = tested on: patients with symptomatic pulmonary embolism with or without symptomatic deep venous thrombosis; assay: CASSIOPEA (EFC6034) phase III clinical trial: symptomatic recurrent PE/DVT (efficacy); settings: for Hazard ratio, symptomatic recurrent PE/DVT: idrabiotaparinux vs warfarin
Method: Patients with confirmed symptomatic PE with or without acute symptomatic DVT are eligible for this trial. Treatment with a therapeutic dose of any LMWH or UFH or fondaparinux is allowed only within the 36 hours immediately preceding randomization. Randomization is performed as soon as the diagnosis of PE (and DVT if concomitant suspected symptomatic DVT) is confirmed.
(§1) A blinded central and independent adjudication committee (CIAC) assesses PE (and DVT when applicable), all episodes of locally confirmed or doubtful PE/DVT recurrences, clinically relevant bleedings and deaths. Adjudication results are the basis for the final analyses.
Patients in the 3-month stratum have an additional 13-week observational period after cessation of study treatment. Patients in the 6-month stratum have a 13-week up to 26-week observational period.
Injections of SSR126517E (or its placebo) is started 12 h after the last post-randomization enoxaparin administration. SSR126517E (or its placebo) is administered s.c. once-weekly for a period of 3 or 6 months. All patients receive a first 0.5 ml injection (3.0 mg in the SSR126517E group). The following injections are also 0.5 ml, except in patients with severe renal insufficiency (defined as creatinine clearance <30 mL/min), who decrease to a dosage of 0.3 ml (1.8 mg in the SSR126517E group).
The primary efficacy outcome is symptomatic recurrent PE/DVT (fatal or not), as validated by the CIAC, within 99 days for patients from both strata (3- and 6-month treatments).
A secondary efficacy outcome for patients in the 6-month stratum is symptomatic recurrent PE/DVT, as validated by the CIAC, within 190 days.
There are 2 additional efficacy outcomes: • the time to first symptomatic recurrent PE/DVT (fatal or non fatal) within the patient's treatment period, i.e. a combined analysis of the 3-and 6-month strata patients; • the separate components of the efficacy outcomes within 99 days (all patients) and within 190 days (6-month stratum patients only).
The definitions to confirm a suspected symptomatic episode of recurrent PE/DVT are as follows:
Efficacy analyses are performed on the—All-randomized—population (patients with a patient number and an allocated treatment number recorded in the IVRS database).
The secondary efficacy outcome (VTE recurrence within 190 days) for patients in the 6-month stratum is analyzed using the same method and applying the same non-inferiority margin.
Time to first symptomatic recurrent PE/DVT within the patient's study treatment period for all patients is analyzed using Cox's proportional hazards model, stratified on intended treatment duration.

[3] = tested on: patients with symptomatic pulmonary embolism with or without symptomatic deep venous thrombosis; assay: CASSIOPEA (EFC6034) phase III clinical trial: clinically relevant bleeding (safety); settings: for Hazard ratio, clinically relevant bleeding: idrabiotaparinux vs warfarin
Text: According to the instant invention, the term “bleedings” designates any clinically relevant bleeding (i.e. major or clinically relevant non-major hemorrhage).
According to the instant invention, the term “major bleedings” designates any of the following clinical situations: • bleeding associated with a fall in hemoglobin of 2 g per deciliter or more, • bleeding that led to a transfusion of 2 or more units of packed red cells or whole blood (a red cell unit being defined as the quantity of red cells obtained from or corresponding to approximately 500 ml of whole blood), • bleeding that involved a critical organ (intracranial, intraocular, intraspinal, retroperitoneal or pericardial), • bleeding that contributed to death.
as §1
The principal safety outcome is any clinically relevant bleeding as classified by the CIAC (i.e. major bleeding and other clinically relevant non-major bleeding).
Bleeding analyses are also performed on the—All-randomized—population. Other safety analyses are performed on the—All-treated—population.
Rates of clinically relevant bleedings are calculated in each treatment group at 3 months (99 days) and 6 months (190 days) and compared between treatment groups using a Mantel-Haenszel chi-square stratified on intended treatment duration. Cumulative incidences of clinically relevant bleedings during the combined 3-month and 6-month period and up to the end of study are described by treatment group using the Kaplan Meier method.

[4] = tested on: patients with symptomatic pulmonary embolism with or without symptomatic deep venous thrombosis; assay: CASSIOPEA (EFC6034) phase III clinical trial: deaths; settings: overall
Text: as §1

[5] = Cox proportional hazards model, stratified
[6] = Randomized population in the 6-month stratum
[7] = Randomized population, All patients
[8] = Randomized population, Patients with VKA beyond D99/D190
[9] = Randomized population, Patients with no VKA beyond D99/D190
[10] = Randomized population, or death for which PE could not be ruled out
[11] = combined 3-month and 6-month period
[12] = combined 3-month and 6-month periods, time-to-event analysis (Kaplan-Meier)
[13] = treatment period plus 3 to 6-month post-treatment follow-up (up to end of study)

CO[C@H]1O[C@H](COS(=O)(=O)O)[C@@H](O[C@@H]2O[C@@H](C(=O)O)[C@@H](O[C@H]3O[C@H](COS(=O)(=O)O)[C@@H](O[C@@H]4O[C@H](C(=O)O)[C@@H](O[C@H]5O[C@H](COS(=O)(=O)O)[C@@H](OC)[C@H](OC)[C@H]5NC(=O)CCCCCNC(=O)CCCC[C@@H]5SC[C@@H]6NC(=O)N[C@@H]65)[C@H](OC)[C@H]4OC)[C@H](OS(=O)(=O)O)[C@H]3OS(=O)(=O)O)[C@H](OC)[C@H]2OC)[C@H](OS(=O)(=O)O)[C@H]1OS(=O)(=O)O [Idrabiotaparinux, idrabiotaparinux]
PE, DVT or major bleeding in the combined 3-month and 6-month period: Idrabiotaparinux vs. Warfarin Odds ratio [1, 5]: 0.66
PE, DVT or major bleeding up to the end of study: Idrabiotaparinux vs. Warfarin Odds ratio [1, 5]: 0.54
PE, DVT or major bleeding in the combined 3-month and 6-month period: Patients with event ([1]; composite endpoint): 65 (4.1%) n (%)
PE, DVT or major bleeding up to the end of study: Patients with event ([1]; composite endpoint): 82 (5.1%) n (%)
DVT only within 190 days from randomization: Patients with event ([2]; 6-month stratum): 7 (0.6%) n (%)
Non-fatal PE within 190 days from randomization: Patients with event ([2]; 6-month stratum): 9 (0.7%) n (%)
Symptomatic recurrent PE/DVT (fatal or not) from randomization to end of study: Patients with event ([2]; 6-month stratum, All patients): 37 (2.9%) n (%)
Symptomatic recurrent PE/DVT (fatal or not) from randomization to end of study: Patients with event ([2]; 6-month stratum, Patients with VKA beyond D190): 10 (3.2%) n (%)
Symptomatic recurrent PE/DVT (fatal or not) from randomization to end of study: Patients with event ([2]; 6-month stratum, Patients with no VKA beyond D190): 27 (2.8%) n (%)
Reducing the risk of symptomatic recurrent PE/DVT up to Day 190 (non-inferiority) ([2]; 6-month stratum, non-inferiority margin 2.0): at least as effective as warfarin
Fatal PE within 190 days from randomization: Patients with event ([2]; 6-month stratum, or death for which PE could not be ruled out): 13 (1.0%) n (%)
Patients who experienced DVT up to Day 190 ([2]; 6-month stratum, up to Day 190): 0.6%
DVT only up to the end of study: Patients with event ([2]; Randomized population): 10 (0.6%) n (%)
DVT only within 99 days from randomization: Patients with event ([2]; Randomized population): 5 (0.3%) n (%)
Non-fatal PE up to the end of study: Patients with event ([2]; Randomized population): 16 (1.0%) n (%)
Non-fatal PE within 99 days from randomization: Patients with event ([2]; Randomized population): 13 (0.8%) n (%)
Symptomatic recurrent PE/DVT (fatal or not) within 190 days from randomization: Patients with event [2, 6]: 29 (2.3%) n (%)
Symptomatic recurrent PE/DVT within 190 days: Idrabiotaparinux vs. Warfarin odds ratio [2, 6]: 0.80
Symptomatic recurrent PE/DVT (fatal or not) from D100/D191 to end of study: Patients with event [2, 7]: 9 (0.6%) n (%)
Symptomatic recurrent PE/DVT (fatal or not) from randomization to end of study: Patients with event [2, 7]: 48 (3.0%) n (%)
Symptomatic recurrent PE/DVT within 99 days: Idrabiotaparinux vs. Warfarin odds ratio ([2]; Randomized population, Mantel-Haenszel, stratified on intended treatment duration): 0.79
Symptomatic recurrent PE/DVT (fatal or not) from D100/D191 to end of study: Patients with event [2, 8]: 4 (1.0%) n (%)
Symptomatic recurrent PE/DVT (fatal or not) from randomization to end of study: Patients with event [2, 8]: 12 (3.1%) n (%)
Symptomatic recurrent PE/DVT (fatal or not) from D100/D191 to end of study: Patients with event [2, 9]: 5 (0.5%) n (%)
Symptomatic recurrent PE/DVT (fatal or not) from randomization to end of study: Patients with event [2, 9]: 36 (3.0%) n (%)
Fatal PE up to the end of study: Patients with event [2, 10]: 22 (1.4%) n (%)
Fatal PE within 99 days from randomization: Patients with event [2, 10]: 16 (1.0%) n (%)
Symptomatic recurrent PE/DVT (fatal or not) within 99 days from randomization: Patients with event ([2]; Randomized population, within 99 days): 34 (2.1%) n (%)
Reducing the risk of symptomatic recurrent PE/DVT up to Day 99 (non-inferiority) ([2]; all randomized population, non-inferiority margin 2.0): at least as effective as warfarin
Hazard ratio, symptomatic recurrent PE/DVT [2, 11]: 0.77
Cumulative incidence of symptomatic recurrent PE/DVT at Day 99 [2, 12]: 2.2%
Cumulative incidence of symptomatic recurrent PE/DVT at Day 190 [2, 12]: 2.6%
Cumulative incidence rate of symptomatic recurrent PE/DVT at Day 360 [2, 13]: 3.1%
Patients who experienced DVT up to Day 99 ([2]; up to Day 99): 0.3%
Patients who experienced DVT up to the end of study ([2]; up to the end of study): 0.6%
Patients who experienced non-fatal PE up to the end of study ([2]; up to the end of study): 1.0%
Hazard ratio, symptomatic recurrent PE/DVT ([2]; up to the end of the study): 0.49
Risk reduction in the occurrence of symptomatic recurrent PE/DVT ([2]; up to the end of the study, vs warfarin): 51%
Any clinically relevant bleeding within 190 days: Idrabiotaparinux vs. Warfarin odds ratio ([3]; 6-month stratum): 0.81
Clinically relevant bleedings up to Day 190 ([3]; 6-month stratum): 6.6%
Fatal bleeding within 190 days from randomization: Patients with event ([3]; 6-month stratum): 7 (0.6%) n (%)
Fatal bleeding within 190 days: Idrabiotaparinux to Warfarin odds ratio (95% CI) ([3]; 6-month stratum): 1.40 (0.44 to 4.42)
Intracranial haemorrhage (fatal or not) within 190 days from randomization: Patients with event ([3]; 6-month stratum): 8 (0.6%) n (%)
Intracranial haemorrhage (fatal or not) within 190 days: Idrabiotaparinux to Warfarin odds ratio (95% CI) ([3]; 6-month stratum): 1.33 (0.46 to 3.85)
Major bleeding within 190 days from randomization: Patients with event ([3]; 6-month stratum): 24 (1.9%) n (%)
Major bleeding within 190 days: Idrabiotaparinux to Warfarin odds ratio (95% CI) ([3]; 6-month stratum): 0.66 (0.39 to 1.11)
Patients who experienced a major bleeding up to Day 190 ([3]; 6-month stratum): 1.9%
Any clinically relevant bleeding within 99 days from randomization: Patients with event ([3]; Randomized population): 72 (4.5%) n (%)
Fatal bleeding within 99 days from randomization: Patients with event ([3]; Randomized population): 3 (0.2%) n (%)
Fatal bleeding within 99 days: Idrabiotaparinux to Warfarin odds ratio (95% CI) ([3]; Randomized population): 0.50 (0.13 to 2.01)
Intracranial haemorrhage (fatal or not) within 99 days from randomization: Patients with event ([3]; Randomized population): 4 (0.3%) n (%)
Intracranial haemorrhage (fatal or not) within 99 days: Idrabiotaparinux to Warfarin odds ratio (95% CI) ([3]; Randomized population): 0.57 (0.17 to 1.96)
Major bleeding within 99 days from randomization: Patients with event ([3]; Randomized population): 20 (1.3%) n (%)
Major bleeding within 99 days: Idrabiotaparinux to Warfarin odds ratio (95% CI) ([3]; Randomized population): 0.51 (0.30 to 0.88)
Any clinically relevant bleeding within 190 days from randomization: Patients with event [3, 6]: 84 (6.6%) n (%)
Any clinically relevant bleeding within 99 days: Idrabiotaparinux vs. Warfarin odds ratio ([3]; Randomized population, Mantel-Haenszel, stratified): 0.67
Major bleeding within 99 days: Idrabiotaparinux to Warfarin odds ratio (95% CI) ([3]; Randomized population, listed as idrabiotaparinux): 0.51
Hazard ratio, clinically relevant bleeding [3, 11]: 0.70
Cumulative incidence of clinically relevant bleeding at Day 99 [3, 12]: 4.6%
Cumulative incidence of clinically relevant bleeding at Day 190 [3, 12]: 6.6%
Cumulative incidence rate of clinically relevant bleeding at Day 360 [3, 13]: 8.3%
Incidence of clinically relevant bleeding up to Day 99 ([3]; up to Day 99): 4.5%
Patients who experienced a major bleeding up to Day 99 ([3]; up to Day 99): 1.3%
Hazard ratio, clinically relevant bleeding ([3]; up to the end of study): 0.79
Patients who died on study [4]: 5.9%
